From publication PMC7518156 (PeerJ, 2020)
Like-named read-outs stand apart in the source and are kept apart here.

Assay: Pharmacokinetics of ERL and GEF in Wistar rats after four weeks consumption of water or flavoured water (plasma, UPLC-MS/MS, non-compartmental analysis)
Format: in vivo
Details: for AUC(0-t): read-out: AUC0-48; for half-life: read-out: t½ (converted)
Method: Fifty healthy male Wistar rats weighing 250 ± 30 g were obtained from the animal house, College of Pharmacy, King Saud University, Riyadh, Saudi Arabia. Rats were randomly divided into ten cages (n = 5). All individualized ventilated cages (IVC) type IV used in this study were of 20″L × 11″W × 9″ in dimension capable of hosting 4–5 rats. Cages density, bedding, and sanitation frequency was similar in all cages. Cages were housed at room temperature (25 °C) and at an average relative humidity of 50%. Daily observation of all rats was required to ensure that all animals maintained good health. All animal experiments strictly followed the guidelines of the Ethical Committee for Performing Studies on Animals, King Saud University, Riyadh, Saudi Arabia, protocol number KSU-SE-19-13.
Four types of FW, (Aquafina®, a product of Pepsi-Cola®, Saudi Industrial Projects Company, Jeddah, Saudi Arabia) with different flavours, specifically berry (group II), peach (group III), lime (group IV), and pineapple FW (group V) were used. Other components found in FW used in this study include water, preservatives (sodium phosphate, potassium sorbet, sodium benzoate), acidifiers (citric acid, maleic acid), sweeteners (aspartame, potassium acesulfame, allose), acidity regulator (sodium citrate), and antioxidant agent (calcium disodium EDTA). […] The parallel design was used in this study to avoid animals’ physiological changes that could occur in the cross-over design, possibly affecting PK profiles of drug substances. All animals involved in the study were deprived from food, but not water/FW, for at least 12 h before drug administration. […] Drugs were administered to the rats between 7:00 am and 8:00 am. Rats were separately weighed from day one of water/FW consumption prior to drug administration for accurate dose calculation (Fig. S1). Blood samples (0.3 mL) were collected from each rat immediately prior to dosing (0 time) and at predetermined time points (0.5, 1, 2, 3, 5, 24, and 48 h) post drug administration. Blood samples were withdrawn and processed as described previously ([Maher et al., 2017]; [Maher, Alzoman & Shehata, 2016]; [Maher, Alzoman & Shehata, 2018]). Specifically, blood samples were withdrawn from the retro-orbital sinus into a series of heparinized tubes. Plasma was separated from collected blood samples by centrifugation at 4,500 rpm for 30 min where the centrifuge was maintained at 4 °C, and then stored at −20 °C until the day of analysis. […] A mixture of acetonitrile: water (80: 20, v/v), with 0.1% formic acid was used as a mobile phase at a flow rate of 0.2 mL/min ([Maher, Alzoman & Shehata, 2016]).
Cmax and tmax were obtained from the corresponding plasma concentration–time curve (Figs. 1A and 1B). […] The area under the plasma concentration–time curve from time 0 to the last sampling time t, 48 h (AUC0–t) was calculated using the trapezoidal rule. […] AUC0–∞ was also derived by summing up AUC0–t andthe area obtained by extrapolation from time t to ∞. The latter area was calculated from the division of the last measured concentration (Clast) by λz.
Results were presented as mean ± SD. PK parameters of all treated groups following the consumption of FW were compared with control (rats having free access to water), using one-way ANOVA and Bonferroni’s multiple comparisons test. Statistical significance was obtained with p-values ≤ 0.05.

[1] = male, Wistar, rat, plasma, oral, 20 mg/kg, PKSolver sheet, dose 20 mg/kg, +Berry, read-out: Conc
[2] = male, Wistar, rat, plasma, oral, 20 mg/kg, PKSolver sheet, dose 20 mg/kg, +Lime, read-out: Conc
[3] = male, Wistar, rat, plasma, oral, 20 mg/kg, PKSolver sheet, dose 20 mg/kg, +Peach, read-out: Conc
[4] = male, Wistar, rat, plasma, oral, 20 mg/kg, PKSolver sheet, dose 20 mg/kg, +Pineapple, read-out: Conc
[5] = male, Wistar, rat, plasma, oral, 20 mg/kg, PKSolver sheet, dose 20 mg/kg, drug alone (water), read-out: Conc
[6] = male, Wistar, rat, plasma, po, 20 mg/kg, rats, 20 mg/kg oral, +Berry FW, average, read-out: Conc*10 (ng/mL plasma)
[7] = male, Wistar, rat, plasma, po, 20 mg/kg, rats, 20 mg/kg oral, +Lime FW, average, read-out: Conc*10 (ng/mL plasma)
[8] = male, Wistar, rat, plasma, po, 20 mg/kg, rats, 20 mg/kg oral, +Peach FW, average, read-out: Conc*10 (ng/mL plasma)
[9] = male, Wistar, rat, plasma, po, 20 mg/kg, rats, 20 mg/kg oral, +Pineapple FW, average, read-out: Conc*10 (ng/mL plasma)
[10] = male, Wistar, rat, plasma, po, 20 mg/kg, rats, 20 mg/kg oral, drug alone (water), average, read-out: Conc*10 (ng/mL plasma)
[11] = male, Wistar, rat, plasma, po, 20 mg/kg, rats, 20 mg/kg oral, four weeks berry FW, n = 5, mean (SD)
[12] = male, Wistar, rat, plasma, po, 20 mg/kg, rats, 20 mg/kg oral, four weeks peach FW, n = 5, mean (SD)
[13] = male, Wistar, rat, plasma, po, 20 mg/kg, rats, 20 mg/kg oral, four weeks pineapple FW, n = 5, mean (SD)
[14] = male, Wistar, rat, plasma, po, 20 mg/kg, rats, 20 mg/kg oral, water (control), n = 5, mean (SD)
[15] = male, Wistar, rat, plasma, po, 20 mg/kg, raw data sheet, from average profile, +Berry FW
[16] = male, Wistar, rat, plasma, po, 20 mg/kg, raw data sheet, from average profile, +Lime FW
[17] = male, Wistar, rat, plasma, po, 20 mg/kg, raw data sheet, from average profile, +Peach FW
[18] = male, Wistar, rat, plasma, po, 20 mg/kg, raw data sheet, from average profile, +Pineapple FW
[19] = male, Wistar, rat, plasma, po, 20 mg/kg, raw data sheet, from average profile, drug alone (water)
[20] = rats, lime FW relative to control (water)
[21] = rats, pineapple FW relative to control (water)

Structure (SMILES): COc1cc2ncnc(Nc3ccc(F)c(Cl)c3)c2cc1OCCCN1CCOCC1 [GEF, Gefitinib]
- concentration at 0 h [1]: 39.1 ng/mL
- concentration at 0.5 h [1]: 99.7 ng/mL
- concentration at 1 h [1]: 152 ng/mL
- concentration at 2 h [1]: 322 ng/mL
- concentration at 3 h [1]: 191 ng/mL
- concentration at 5 h [1]: 150 ng/mL
- concentration at 24 h [1]: 81.4 ng/mL
- concentration at 48 h [1]: 30.2 ng/mL
- concentration at 0 h [2]: 157 ng/mL
- concentration at 0.5 h [2]: 387 ng/mL
- concentration at 1 h [2]: 483 ng/mL
- concentration at 2 h [2]: 574 ng/mL
- concentration at 3 h [2]: 643 ng/mL
- concentration at 5 h [2]: 490 ng/mL
- concentration at 24 h [2]: 216 ng/mL
- concentration at 48 h [2]: 95.2 ng/mL
- concentration at 0 h [3]: 44.5 ng/mL
- concentration at 0.5 h [3]: 135 ng/mL
- concentration at 1 h [3]: 202 ng/mL
- concentration at 2 h [3]: 365 ng/mL
- concentration at 3 h [3]: 213 ng/mL
- concentration at 5 h [3]: 161 ng/mL
- concentration at 24 h [3]: 85.3 ng/mL
- concentration at 48 h [3]: 25.2 ng/mL
- Cmax (male, Wistar, rat, plasma, oral, 20 mg/kg, PKSolver sheet, dose 20 mg/kg, +Pineapple): 445 ng/mL
- Tmax (male, Wistar, rat, plasma, oral, 20 mg/kg, PKSolver sheet, dose 20 mg/kg, +Pineapple, read-out: Tmax): 2 h
- concentration at 0 h [4]: 75.5 ng/mL
- concentration at 0.5 h [4]: 227 ng/mL
- concentration at 1 h [4]: 302 ng/mL
- concentration at 2 h [4]: 445 ng/mL
- concentration at 3 h [4]: 259 ng/mL
- concentration at 5 h [4]: 210 ng/mL
- concentration at 24 h [4]: 152 ng/mL
- concentration at 48 h [4]: 40.2 ng/mL
- concentration at 0 h [5]: 34.5 ng/mL
- concentration at 0.5 h [5]: 142 ng/mL
- concentration at 1 h [5]: 220 ng/mL
- concentration at 2 h [5]: 402 ng/mL
- concentration at 3 h [5]: 169 ng/mL
- concentration at 5 h [5]: 148 ng/mL
- concentration at 24 h [5]: 69.8 ng/mL
- concentration at 48 h [5]: 29.2 ng/mL
- concentration at 0 h [6]: 39.1 ng/mL
- concentration at 0.5 h [6]: 99.7 ng/mL
- concentration at 1 h [6]: 152 ng/mL
- concentration at 2 h [6]: 322 ng/mL
- concentration at 3 h [6]: 191 ng/mL
- concentration at 5 h [6]: 150 ng/mL
- concentration at 24 h [6]: 81.4 ng/mL
- concentration at 48 h [6]: 30.2 ng/mL
- concentration at 0 h [7]: 157 ng/mL
- concentration at 0.5 h [7]: 387 ng/mL
- concentration at 1 h [7]: 483 ng/mL
- concentration at 2 h [7]: 574 ng/mL
- concentration at 3 h [7]: 643 ng/mL
- concentration at 5 h [7]: 490 ng/mL
- concentration at 24 h [7]: 216 ng/mL
- concentration at 48 h [7]: 95.2 ng/mL
- concentration at 0 h [8]: 44.5 ng/mL
- concentration at 0.5 h [8]: 135 ng/mL
- concentration at 1 h [8]: 202 ng/mL
- concentration at 2 h [8]: 365 ng/mL
- concentration at 3 h [8]: 213 ng/mL
- concentration at 5 h [8]: 161 ng/mL
- concentration at 24 h [8]: 85.3 ng/mL
- concentration at 48 h [8]: 25.2 ng/mL
- concentration at 0.5 h [9]: 227 ng/mL
- concentration at 1 h [9]: 302 ng/mL
- concentration at 2 h [9]: 445 ng/mL
- concentration at 3 h [9]: 259 ng/mL
- concentration at 5 h [9]: 210 ng/mL
- concentration at 24 h [9]: 152 ng/mL
- concentration at 48 h [9]: 40.2 ng/mL
- concentration at 0 h [10]: 34.5 ng/mL
- concentration at 0.5 h [10]: 142 ng/mL
- concentration at 1 h [10]: 220 ng/mL
- concentration at 2 h [10]: 402 ng/mL
- concentration at 3 h [10]: 169 ng/mL
- concentration at 5 h [10]: 148 ng/mL
- concentration at 24 h [10]: 69.8 ng/mL
- concentration at 48 h [10]: 29.2 ng/mL
- AUC(0-inf) [11]: 5230 ng·h/mL
- CL/F [11]: 74.7 mL/min/kg
- AUC(0-t) [11]: 4460 ng·h/mL
- Tmax (male, Wistar, rat, plasma, po, 20 mg/kg, rats, 20 mg/kg oral, four weeks berry FW, n = 5, mean (SD), read-out: tmax): 2.33 h
- half-life [11]: 17.7 h
- half-life (male, Wistar, rat, plasma, po, 20 mg/kg, rats, 20 mg/kg oral, four weeks lime FW, n = 5, mean (SD)): 16.9 h
- AUC(0-inf) [12]: 5300 ng·h/mL
- CL/F [12]: 70.3 mL/min/kg
- Cmax [12]: 365 ng/mL
- AUC(0-t) [12]: 4740 ng·h/mL
- Tmax (male, Wistar, rat, plasma, po, 20 mg/kg, rats, 20 mg/kg oral, four weeks peach FW, n = 5, mean (SD), read-out: tmax): 2 h
- half-life [12]: 15.4 h
- Cmax [13]: 445 ng/mL
- Tmax (male, Wistar, rat, plasma, po, 20 mg/kg, rats, 20 mg/kg oral, four weeks pineapple FW, n = 5, mean (SD), read-out: tmax): 1.71 h
- half-life [13]: 17.8 h
- AUC(0-inf) [14]: 5060 ng·h/mL
- CL/F [14]: 77.3 mL/min/kg
- Cmax [14]: 406 ng/mL
- AUC(0-t) [14]: 4310 ng·h/mL
- Tmax (male, Wistar, rat, plasma, po, 20 mg/kg, rats, 20 mg/kg oral, water (control), n = 5, mean (SD), read-out: tmax): 2 h
- half-life [14]: 17.9 h
- AUC [15]: 5230 ng·h/mL
- Cmax [15]: 322 ng/mL
- Tmax (male, Wistar, rat, plasma, po, 20 mg/kg, raw data sheet, from average profile, +Berry FW, read-out: tmax): 2 h
- half-life [15]: 17.7 h
- AUC [16]: 15400 ng·h/mL
- Cmax [16]: 643 ng/mL
- half-life [16]: 16.9 h
- AUC [17]: 5300 ng·h/mL
- Cmax [17]: 365 ng/mL
- Tmax (male, Wistar, rat, plasma, po, 20 mg/kg, raw data sheet, from average profile, +Peach FW, read-out: tmax): 2 h
- half-life [17]: 15.4 h
- AUC [18]: 8170 ng·h/mL
- Cmax [18]: 445 ng/mL
- Tmax (male, Wistar, rat, plasma, po, 20 mg/kg, raw data sheet, from average profile, +Pineapple FW, read-out: tmax): 2 h
- half-life [18]: 17.8 h
- AUC [19]: 5060 ng·h/mL
- Cmax [19]: 402 ng/mL
- Tmax (male, Wistar, rat, plasma, po, 20 mg/kg, raw data sheet, from average profile, drug alone (water), read-out: tmax): 2 h
- half-life [19]: 17.9 h
- change in t1/2 (rats, all tested FW relative to control (water)): None of the tested FW caused a significant change
- effect on exposure (AUC0–48) (rats, berry FW relative to control (water)): no effect was found
- decrease in apparent oral clearance (CL/F) [20]: 67%
- increase in AUC0–48 [20]: 203%
- increase in AUC0–∞ [20]: 203%
- increase in Cmax [20]: 58%
- increase in tmax [20]: ~50%
- decrease in apparent oral clearance (CL/F) [21]: ~40%
- increase in AUC0–48 [21]: ~65%
- increase in AUC0–∞ [21]: ~61%
- Tmax (raw data sheet, from average profile, +Lime FW): 3 h
- % change FOR C MAX (raw data sheet, +Berry FW vs drug alone): -19% FOR C MAX
- % change FOR C MAX (raw data sheet, +Lime FW vs drug alone): 60% FOR C MAX
- % change FOR C MAX (raw data sheet, +Peach FW vs drug alone): -9% FOR C MAX
- % change FOR C MAX (raw data sheet, +Pineapple FW vs drug alone): 11% FOR C MAX
